pKi: −log10 of the molar value.
system: not given; experiment: not given; settings: not given

Structure (SMILES) | melting point [°C]
Cc1ccc2c(c1)oc1c(C(=O)NN3CCOCC3)nn(-c3ccc(Cl)cc3Cl)c12 [Example 3.22, N-morpholin-4yl-1-(2,4-dichlorophenyl)-6-methyl-1H-benzofuro[3,2-c]pyrazole-3-carboxamide] | 178 to 180
Cc1ccc2c(c1)oc1c(C(=O)N[C@@H]3C[C@H]4C[C@@H]([C@@H]3C)C4(C)C)nn(-c3ccc(Cl)cc3Cl)c12 [Example 3.25, N-2,6,6-trimethyl-bicyclo[3.1.1]hept-3yl-1-(2,4-dichlorophenyl)-6-methyl-1H-benzofuro[3,2-c]pyrazole-3-carboxamide] | 85 to 87
Cc1ccc2c(c1)oc1c(C(=O)NC3CCCCC3)nn(-c3ccc(Cl)cc3Cl)c12 [Example 3.23, N-cyclohexyl-1-(2,4-dichlorophenyl)-6-methyl-1H-benzofuro[3,2-c]pyrazole-3-carboxamide] | 140 to 142
Cc1ccc2c(c1)oc1c(C(=O)N[C@H]3C[C@@H](C)CC[C@@H]3C(C)C)nn(-c3ccc(Cl)cc3Cl)c12 [Example 3.24, N-2-isopropyl-5-methyl-cyclohexyl-1-(2,4-dichlorophenyl)-6-methyl-1H-benzofuro[3,2-c]pyrazole-3-carboxamide] | 70 to 72
Cc1ccc2c(c1)oc1c(C(=O)NN3CCCC3)nn(-c3ccc(Cl)cc3Cl)c12 [Example 3.21, N-pirrolidinyl-1-(2,4-dichlorophenyl)-6-methyl-1H-benzofuro[3,2-c]pyrazole-3-carboxamide] | 90 to 92
Cc1ccc2c(c1)oc1c(C(N)=O)nn(-c3ccc(Cl)cc3Cl)c12 [1-(2,4-dichlorophenyl)-6-methyl-1H-benzofuro[3,2-c]pyrazole-3-carboxamide] | 185 to 186

More lines, now with the values ahead:

melting point [°C] | Structure (SMILES)
210 to 212 | Cc1ccc2c(c1)oc1c(C(=O)NC34CC5CC(CC(C5)C3)C4)nn(-c3ccc(Cl)cc3Cl)c12 [Example 3.28, N-adamantan-1yl-1-(2,4-dichlorophenyl)-6-methyl-1H-benzofuro[3,2-c]pyrazole-3-carboxamide]
84 to 86 | Cc1ccc2c(c1)oc1c(C(=O)NC3C4(C)CCC(C4)C3(C)C)nn(-c3ccc(Cl)cc3Cl)c12 (stereo not drawn) [Example 3.26, N-1,3,3-trimethyl-bicyclo[2.2.1]hept-2yl-1-(2,4-dichlorophenyl)-6-methyl-1H-benzofuro[3,2-c]pyrazole-3-carboxamide]
209 to 211 | Cc1ccc2c(c1)oc1c(C(=O)NC3C4CC5CC(C4)CC3C5)nn(-c3ccc(Cl)cc3Cl)c12 (stereo not drawn) [Example 3.29, N-adamantan-2yl-1-(2,4-dichlorophenyl)-6-methyl-1H-benzofuro[3,2-c]pyrazole-3-carboxamide]
78 to 80 | Cc1ccc2c(c1)oc1c(C(=O)NC3CC4CCC3(C)C4(C)C)nn(-c3ccc(Cl)cc3Cl)c12 (stereo not drawn) [Example 3.27, N-1,7,7-trimethyl-bicyclo[2.2.1]hept-2yl-1-(2,4-dichlorophenyl)-6-methyl-1H-benzofuro[3,2-c]pyrazole-3-carboxamide]

target: T1, CB2 cannabinoidergic receptors (Mus musculus, UniProt P47936); experiment: Radioreceptor binding, displacement of [3H]-CP-55,940, CB2 receptors (mouse spleen membranes); settings: 1 nM [3H]-CP55,940, 1 hour at 30° C.
T1 construct: the complete brain (excluding the cerebellum) and the spleen were quickly dissected and kept in ice; from tissue; host or cells: mouse spleen membranes
Method: (§1) The affinity of the compounds towards the CB1 and CB2 cannabinoidergic receptors was evaluated in vitro by radioreceptor binding studies using the following method.
(§2) The technique of the receptor binding allows to establish if, and with which affinity and specificity, a specific compound binds to a particular receptor. To evaluate the affinity of a specific compound to a particular receptor it is necessary to challenge in a particular tissue preparation wherein those specific receptors are present the compound to be tested with a radioactive labelled compound whose affinity for the same receptors is known. […] The amount of radioactivity present in the receptor-compound complex allows furthermore to stimate with great accuracy the amount of compound bound to the receptor. By said method it is therefore possible to stablish quickly the affinity of a new compound towards a specific receptor and thus to determine its pharmacological activity. […]
(§3) The thus obtained membranes (50-80 μg of proteins) were incubated in the presence of 1 nM of [^3H]-CP55.940 for 1 hour at 30° C. in a final volume of 0.5 ml of TME buffer containing 5 mg/ml of bovine serum albumin (BSA). The non specific binding was measured in the presence of CP55.940 at a 1 μM concentration. […]
(§4) The radioactivity present in the filters was determined by a scintillator spectrophotometer (Tricarb® 2100, Packard, Meridien, USA). […]

T1 sequence (P47936 whole entry): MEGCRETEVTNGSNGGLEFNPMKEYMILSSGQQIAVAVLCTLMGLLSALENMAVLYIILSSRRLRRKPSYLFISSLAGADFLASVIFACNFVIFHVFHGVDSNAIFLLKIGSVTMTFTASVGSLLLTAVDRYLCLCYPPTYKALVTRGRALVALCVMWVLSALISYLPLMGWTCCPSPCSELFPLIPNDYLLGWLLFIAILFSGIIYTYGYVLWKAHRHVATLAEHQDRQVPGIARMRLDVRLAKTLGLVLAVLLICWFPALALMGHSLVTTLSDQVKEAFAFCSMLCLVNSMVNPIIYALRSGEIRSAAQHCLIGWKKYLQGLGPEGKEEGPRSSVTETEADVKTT

Structure (SMILES) | pKi
Cc1ccc2c(c1)oc1c(C(N)=O)nn(-c3ccc(Cl)cc3Cl)c12 [1-(2,4-dichlorophenyl)-6-methyl-1H-benzofuro[3,2-c]pyrazole-3-carboxamide] | < 5.52

target: T2, CB1 cannabinoidergic receptors (Mus musculus, UniProt P47746); experiment: Radioreceptor binding, displacement of [3H]-CP-55,940, CB1 receptors (mouse brain membranes); settings: not given
T2 construct: the complete brain (excluding the cerebellum) and the spleen were quickly dissected and kept in ice; from tissue; host or cells: mouse brain (excluding the cerebellum) membranes
Method: as §1, §2, §3, §4

T2 sequence (P47746 whole entry): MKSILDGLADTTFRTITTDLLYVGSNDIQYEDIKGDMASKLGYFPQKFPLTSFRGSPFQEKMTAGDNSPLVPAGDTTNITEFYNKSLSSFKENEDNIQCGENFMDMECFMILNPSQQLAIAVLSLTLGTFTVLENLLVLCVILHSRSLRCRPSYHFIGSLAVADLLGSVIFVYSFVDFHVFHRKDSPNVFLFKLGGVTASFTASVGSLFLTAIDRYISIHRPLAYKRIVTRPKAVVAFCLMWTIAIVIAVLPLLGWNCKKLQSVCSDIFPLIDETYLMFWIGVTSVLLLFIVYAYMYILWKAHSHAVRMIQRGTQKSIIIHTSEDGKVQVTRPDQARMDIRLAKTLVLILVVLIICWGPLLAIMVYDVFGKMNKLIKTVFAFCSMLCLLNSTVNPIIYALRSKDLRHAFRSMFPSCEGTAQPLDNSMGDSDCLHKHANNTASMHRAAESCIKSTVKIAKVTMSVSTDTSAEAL

Structure (SMILES) | pKi
Cc1ccc2c(c1)oc1c(C(N)=O)nn(-c3ccc(Cl)cc3Cl)c12 [1-(2,4-dichlorophenyl)-6-methyl-1H-benzofuro[3,2-c]pyrazole-3-carboxamide] | < 5.52

Source: patent US20100216785A1, “PHARMACEUTICAL COMPOSITIONS” (NEUROSCIENZE PHARMANESS S.C. A.R.L., priority 2009, published 2010)
